Columns and labels:
[1] = system: breast cancer cells MDA-MB-231; test: Growth of breast cancer cells MDA-MB-231; format: cell-based; conditions: 72 hours of incubation
How it was run: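 Human cancer cells in RPMI 1640 with 10% FBS at 37 °C, 5% CO2, exposed to D-PUFAs or PUFAs, then counted. Breast MDA-MB-231 cells run under the same conditions; values are means of three independent experiments.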

[2] = system: P19 cells; test: NMDA-induced neuronal death in P19 cells; format: cell-based; conditions: NMDA alone 100% death, control without NMDA 0%; negative values = proliferation
[3] = system: α-synuclein; test: Expression of α-synuclein in neuronal cultures (cells P19); format: cell-based; conditions: untreated cells 100%
[4] = system: Jurkat cells; test: Human leukaemia (Jurkat cells); format: cell-based; conditions: 72 hours
Description: (§1) Overall, it may be seen that the series of compounds A and B are the best, so the effectiveness of these series against the development of leukaemia and liver cancer (Tables 9 and 10) was tested.

[5] = system: HepG2 cells; test: Liver cancer (HepG2 cells); format: cell-based; conditions: Homo sapiens, HepG2; 72 hours
Description: These charts show the antitumor efficacy of the compounds of this invention against the growth of breast cancer cells, brain (glioma), and lung cancer. […] The other experimental conditions are identical to those described in the preceding paragraph.
as §1

[6] = system: TNF-α; test: Production of TNF-α in serum of LPS-injected C57BL6/J mice; format: in vivo; conditions: LPS 20 μg i.p. (100%), 200 mg/kg p.o.
Description: (§2) Cyclooxygenase (COX) is an enzyme that can bind to membranes, taking certain lipids from there and catalyze its conversion into molecules that can have inflammatory activity. The binding of this enzyme to membrane lipids is due in part to the membrane lipid structure. The increased activity of COX 1 and 2 isoforms has been associated with the etiopathology of a number of inflammatory diseases by […] arachidonic acid metabolism to produce pro-inflammatory lipid mediators. The D-PUFA compounds of the present invention produced a series of cellular signals that alter the metabolism of arachidonic acid and, as a result, they inhibit the activity and expression of COX in monocytes in culture (Table 14 and FIG. 5A). […] For this purpose, C57BL6/J mice were treated with the various derivatives (200 mg/kg, p.o.,) after inducing an inflammatory reaction in them by intraperitoneal injection of 20 μg of bacterial lipopolysaccharide (LPS).

[7] = system: brain cancer cell (glioma) U118; test: Brain cancer (glioma) U118 cell growth; format: cell-based; conditions: 72 hours of incubation
How it was run: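 Human cells in RPMI 1640 with 10% FBS at 37 °C, 5% CO2, exposed to D-PUFAs or PUFAs, then counted. glioma U118 cells run under the same conditions; values are means of three independent experiments.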

[8] = system: 3T3 cells; test: Percentage of total PUFAs in membranes of 3T3 cells treated with fatty acids (gas chromatography); format: cell-based; conditions: 100 μM, 48 hours, mean ± SEM of four measures, control 32.4 ± 2.1
Description: To perform these experiments, membranes were extracted and total fatty acids were obtained by hydrolysis in basic medium. Methanolic bases of these fatty acids were quantified by gas chromatography. The data shown are averages of four independent measures of PUFA's mass divided by the total fatty acids and expressed as a percentage. It is also shown is standard error of the mean.
The control corresponds to a culture without the presence of added natural or synthetic fatty acids. Cells in their natural form present PUFAs in their membranes, but the presence in the medium of the D-PUFA molecules of the invention increases these levels of PUFAs in the cell membrane.

[9] = Serum cholesterol, triglycerides and glucose in SHR rats (colorimetric); format: in vivo, rat; conditions: 200 mg/kg daily p.o., 28 days, untreated rats 100%
How it was run: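 SHR rats dosed p.o. at 200 mg/kg daily for 28 days; serum cholesterol, triglycerides and glucose measured colorimetrically. Values given as percent of untreated control rats, set at 100%.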

[10] = system: lung cancer cells A549; test: Growth of lung cancer cells A549 (IC50); format: cell-based, human; conditions: 72 hours of incubation
How it was run: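 Human A549 lung cancer cells in RPMI 1640 with 10% FBS at 37 °C, 5% CO2, exposed to D-PUFAs or PUFAs, then counted. values are means of three independent experiments.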

[11] = system: heterotrimeric Gi1 protein; test: Binding of heterotrimeric Gi1 protein to model membranes (centrifugation, immunoblotting); conditions: phosphatidylcholine:phosphatidylethanolamine (6:4) 2 mM phospholipid, 0.1 μM D-PUFA; control 100 ± 5; in % (unit assumed)
Description: The net result is a regulation of cell signalling leading to the reversal of various pathological processes, as shown later. […] The Control is a sample of model membranes in the absence of fatty acids.

[12] = system: COX-2; test: Expression of COX-2 in LPS-stimulated monocytes in culture; format: cell-based, human; conditions: positive control with LPS 100%
Description: FIG. 5A also presents a drawing showing the COX-2/COX-1 relationship as % of control (Y axis) for the following compounds (X-axis): OOA (2-hydroxy-oleic acid), OLA (182A1), OALA (183A1), OGLA (183A2), OARA (204A1), OEPA (205A1), ODHA (226A1). […] The reduction of this factor is directly related to the anti-inflammatory medication. The compounds are the same as in the left pane.
as §2
Inhibition of COX-2 expression in monocytes. Percentages of inhibition (compared to the positive control in the presence of LPS, 100%) of COX-2 protein levels (expression) by the various fatty acid derivatives.

[13] = Lamellar-to-hexagonal (HII) transition temperature in DEPE model membranes by Differential Scanning Calorimetry; format: physicochemical; conditions: for Transition temperature (lamellar to HII): DEPE (4 mM), 200 μM compound, series A, control 64.5
How it was run: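 Lamellar-to-HII transition temperature of DEPE membranes measured by differential scanning calorimetry, with DEPE:fatty acid at 10:1 mol:mol. Control membranes contained no fatty acid.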

[14] = system: apolipoprotein AI (apoA-I); test: Levels of apoA-I in SHR rats (RT-PCR); format: in vivo, rat; conditions: 200 mg/kg day p.o., 30 days, before treatment 100%
How it was run: (§3)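 SHR rats dosed orally at 200 mg/kg day for 30 days against water vehicle. At study end, blood pressure taken non-invasively by tail cuff and apoA-I assessed as gene expression by RT-PCR.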

[15] = system: Spontaneously Hypertensive Rats (SHR); test: Blood pressure of SHR rats (cuff-tail method); format: in vivo, rat; conditions: 200 mg/kg day p.o., 30 days, before treatment 214 mmHg
How it was run: as §3

[16] = system: B6 healthy mice; test: Radial maze in control animals (B6 healthy mice); format: in vivo; conditions: 20 mg/kg daily po, 3 months
Description: To test the efficacy of the compounds of the present invention to induce neuroregeneration or inhibit neurodegeneration, an animal model of Alzheimer's disease was used. In this model mice develop neurodegeneration because they express a series of mutant proteins that lead to brain damage (Alzh mice). B6 mice were used as healthy animal controls. Both groups of animals were treated for a period of 3 months with vehicle (water) or with various D-PUFA (20 mg/kg, daily po) since they were an age of 3 months. To determine whether cognitive improvement occurred after treatment, animal behaviour was monitored in the radial maze. The animals are kept on restricted diet to have appetite. In a symmetrical 8-arm radial maze, visual marks were placed to facilitate the orientation of the animal and food (15 mg tablet) was put in four of the arms. The time each animal took to complete the exercise, and the number of errors, were measured using a camera attached to a computer system. In this sense, Alzheimer animals have values about 50% higher than healthy animals, both by the time it takes to perform the exercise and by the number of errors made (FIG. 4B). […] In this regard, the effectiveness of the compound 183B1, 205A1, 205B1, 226A1, 226 V1 was also tested, showing improvements in animals with Alzheimer's disease (times of 98, 92, 93, 86 and 89 seconds, respectively). On the other hand, it is also interesting that these same compounds (183B1, 205A1, 205B1, 226A1, 226B1 and 226V1) also produced reductions in the times taken to complete the experiment in control animals (B6 healthy mice) of 8s, 11s, 12s, 18s, 16s and 14s, respectively. Therefore, it may be concluded that these compounds have significant activity against neurodegeneration and in neuroregeneration.

## CCCCCC=CCC=CCC=CCCCC(O)C(=O)O (stereo not shown) [183A2, 2-hydroxy-6,9,12-octadecatrienoic acid]
[1]; Homo sapiens, MDA-MB-231
  IC50: 347 µM
[2]
  Neuronal death (P19 cells) after treatment with NMDA: −70%
[3]
  Expression of α-synuclein: 40%
[4]; Homo sapiens, Jurkat
  IC50: 184 µM
[5]
  IC50: 380 µM
[6]
  Production of TNF-α in serum: 71%
[7]
  IC50: 372 µM
[8]
  Percentage of total PUFA: 44.0 ± 2.6%
[9]
  Cholesterol in serum (top number): 79%
  Glucose in serum (bottom number): 82%
  Triglycerides in serum (central number): 78%
[10]; Homo sapiens, A549
  IC50: 192 µM
[11]
  G protein binding: 17 ± 357
[12]
  COX-2 protein levels (expression), percentages of inhibition compared to positive control: 23%
[13]
  Transition temperature (lamellar to HII): 50.1 °C
[14]
  Levels of apoA-I: 311%
[15]
  Blood pressure: 189 mm Hg

## CCCCCC=CCC=CCC=CCC=CCCC(O)C(=O)O (stereo not shown) [204A1, 2-hydroxy-5,8,11,14-eicosatetraenoic acid]
[1]; Homo sapiens, MDA-MB-231
  IC50: 381 µM
[2]
  Neuronal death (P19 cells) after treatment with NMDA: −70%
[3]
  Expression of α-synuclein: 41%
[4]; Homo sapiens, Jurkat
  IC50: 62 µM
[5]
  IC50: 192 µM
[6]
  Production of TNF-α in serum: 24%
[7]
  IC50: 197 µM
[8]
  Percentage of total PUFA: 45.5 ± 2.9%
[9]
  Cholesterol in serum (top number): 72%
  Glucose in serum (bottom number): 85%
  Triglycerides in serum (central number): 77%
[10]; Homo sapiens, A549
  IC50: 243 µM
[11]
  G protein binding: 385 ± 22
[12]
  COX-2 protein levels (expression), percentages of inhibition compared to positive control: 17%
[13]
  Transition temperature (lamellar to HII): 49.3 °C
[14]
  Levels of apoA-I: 131%
[15]
  Blood pressure: 205 mm Hg

## CC/C=C\C/C=C\C/C=C\C/C=C\C/C=C\C/C=C\CC(O)C(=O)[O-].[Na+] (stereo not shown) [226B1]
[1]
  IC50: 195 µM
[16]
  Reduction in the time taken to complete the experiment: 16 s
[2]
  Neuronal death (P19 cells) after treatment with NMDA: −222%
[3]
  Expression of α-synuclein: 31%
[4]
  IC50: 175 µM
[6]
  Production of TNF-α in serum: 83%
[7]
  IC50: 196 µM
[9]
  Cholesterol in serum (top number): 59%
  Glucose in serum (bottom number): 81%
  Triglycerides in serum (central number): 62%
[10]
  IC50: 198 µM
[12]
  COX-2 protein levels (expression), percentages of inhibition compared to positive control: 37%
[13]; DEPE membranes, DEPE:D-PUFA 10:1 (mol:mol)
  Temperature of lamellar-to-hexagonal transition: 45.1 °C
[14]
  Levels of apoA-I: 333%
[15]
  Blood pressure: 186 mm Hg
